Legend:
Influenza A virus = assay: Anti-viral activity against Influenza A virus H7N1 pseudotype infected in human A549 cells assessed as inhibition of viral entry incubated for 48 hrs by Neolite Reporter Gene Assay; assay type: functional, organism-based; conditions: H7N1, A549, 48 h
[1] = Cytotoxicity against human A549 cells incubated for 48 hrs by CellTiter-Glo Luminescent Cell Viability Assay; assay type: toxicity, cell-based
[2] = Metabolic stability in human plasma at 2 uM measured after 60 mins by LC-MS/MS analysis; assay type: ADME, cell-free; conditions: 1 h
[3] = Metabolic stability in BALB/c mouse liver microsomes assessed as compound remaining at 2 to 10 uM measured after 60 mins in absence of NADPH by LC-MS/MS analysis; assay type: ADME, Microsome; conditions: dose 2-10 µM, read-out: Stability
[4] = Metabolic stability in BALB/c mouse liver microsomes assessed as compound remaining at 2 to 10 uM measured after 60 mins in presence of NADPH by LC-MS/MS analysis; assay type: ADME, Microsome; conditions: dose 2-10 µM, read-out: Stability
[5] = Metabolic stability in mouse plasma at 2 uM measured after 60 mins by LC-MS/MS analysis; assay type: ADME, cell-free; conditions: 1 h
[6] = Metabolic stability in human liver microsomes assessed as compound remaining at 2 to 10 uM measured after 60 mins in presence of NADPH by LC-MS/MS analysis; assay type: ADME, Microsome; conditions: dose 2-10 µM, read-out: Stability
[7] = Metabolic stability in human liver microsomes assessed as compound remaining at 2 to 10 uM measured after 60 mins in absence of NADPH by LC-MS/MS analysis; assay type: ADME, Microsome; conditions: dose 2-10 µM, read-out: Stability

Compound | EC50 (Influenza A virus) [µM] | CC50 at 48 h [1] [µM] | Stability [2] | remaining at 1 h, up to 10 µM [3] [%] | remaining at 1 h, up to 10 µM [4] [%] | Stability [5] | remaining at 1 h, up to 10 µM [6] [%] | remaining at 1 h, up to 10 µM [7] [%]
COc1cc(OC)cc(-c2nc3ncccn3c2NC2CCCCC2)c1 | 1.89 | 47 |  |  |  |  |  | 
Fc1cc(-c2nc3ncc(Cl)cn3c2NC2CCCCC2)ccc1N1CCOCC1 | 1.61 | > 100 |  |  |  |  |  | 
CN1CCN(c2ccc(-c3nc4ncc(Cl)cn4c3NC3CCCCC3)c(F)c2)CC1 | 1.26 | 46 |  |  |  |  |  | 
Fc1ccc(-c2nc3ncccn3c2NC2CCCCC2)c(F)c1 | 0.09 | 72 | Stable | 108 | 22.8 | Stable | 33.4 | 104
CN1CCN(c2ccc(-c3nc4ncc(Cl)cn4c3NC3CCCCC3)cc2F)CC1 | 1.49 | 31 |  |  |  |  |  | 
COc1ccc(-c2nc3sccn3c2NC2CCCCC2)cc1 | 3.02 | 63.1 |  |  |  |  |  | 
Cc1cc(C)n2c(NC3CCCCC3)c(-c3ccnc(Cl)c3)nc2n1 | 0.27 | > 25 | Stable | 105 | 6.8 | Stable | 0.5 | 114
Cc1cc(C)n2c(NC3CCCCC3)c(-c3cc(Br)ncc3F)nc2n1 | 3.28 | > 25 |  |  |  |  |  | 
Fc1ccc(-c2nc3ncccn3c2NC2CCCCC2)cc1 | 0.04 | > 100 |  |  |  |  |  | 
COCCOCOc1ccc(-c2nc3ncc(Cl)cn3c2NC2CCCCC2)cc1 | 0.86 | > 100 |  |  |  |  |  | 
COCOc1ccc(-c2nc3ncccn3c2NC2CCCCC2)c(F)c1 | 0.08 | > 100 | Stable | 107 | 9.2 | Stable | 62.3 | 103
Oc1ccc(-c2nc3ncc(Br)cn3c2NC2CCCCCC2)cc1 | 3.65 | 45 |  |  |  |  |  | 
COCOc1ccc(-c2nc3ncccn3c2NC2CCCCCC2)cc1 | 0.16 | 52 |  |  |  |  |  | 
Fc1ccc(-c2nc3ncccn3c2NC2CCCCC2)cc1N1CCOCC1 | 0.68 | > 25 |  |  |  |  |  | 
Cc1cc(C)n2c(NC3CCCCC3)c(-c3ccncc3)nc2n1 | 0.89 | > 25 |  |  |  |  |  | 
Fc1cc(-c2nc3ncc(Cl)cn3c2NC2CCCCC2)ccc1N1CCCC1 | 12.5 | > 100 |  |  |  |  |  | 
CC(C)Oc1ccc(-c2nc3ncccn3c2NC2CCCCC2)cc1 | 1.45 | > 100 |  |  |  |  |  | 
CN1CCOc2cc(-c3nc4ncc(Cl)cn4c3NC3CCCCC3)ccc21 | 2.05 | > 100 |  |  |  |  |  | 
Cc1cc(C)n2c(NC3CCCCC3)c(-c3ccc(Cl)c(Cl)c3)nc2n1 | 2.51 | 12 |  |  |  |  |  | 
Cc1cc(C)n2c(NC34CC5CC(C)(CC(C)(C5)C3)C4)c(-c3ccccc3)nc2n1 | 13 | 32 |  |  |  |  |  | 
Fc1ccc(-c2nc3ncc(Cl)cn3c2NC2CCCCCC2)cc1F | 0.12 | > 100 | Stable | 101 | 6.3 | Stable | 2.1 | 97
Fc1ccc(-c2nc3ncc(Cl)cn3c2NC2CCCC2)cc1F | 8.3 | 25 |  |  |  |  |  | 
CCOc1ccc(-c2nc3nc(C)cc(C)n3c2NC2CCCCC2)cc1OC | 5.33 | > 25 |  |  |  |  |  | 

Compound | EC50 (Influenza A virus) [µM] | CC50 at 48 h [1] [µM] | Stability [2] | remaining at 1 h, up to 10 µM [3] [%] | remaining at 1 h, up to 10 µM [4] [%] | Stability [5] | remaining at 1 h, up to 10 µM [6] [%] | remaining at 1 h, up to 10 µM [7] [%]
COc1cc(-c2nc3nc(C)cc(C)n3c2NC2CCCCC2)ccc1F | 2.06 | > 25 |  |  |  |  |  | 
Cc1cc(C)n2c(NC3CCCCC3)c(-c3ccc(F)c(F)c3)nc2n1 | 1.3 | > 25 |  |  |  |  |  | 
Cc1ccc(Cl)c(-c2nc3ncccn3c2NC2CCCCC2)c1F | 1.26 | 27 |  |  |  |  |  | 
CC12CC3CC(C)(C1)CC(Nc1c(-c4ccc(F)c(F)c4)nc4ncccn14)(C3)C2 | 9.18 | 15.5 |  |  |  |  |  | 
Cc1cc(C)n2c(NC3CCCCC3)c(-c3ccc(F)c(N4CCOCC4)c3)nc2n1 | 4.57 | > 25 |  |  |  |  |  | 
Cc1cc(C)n2c(NC3CCCCC3)c(-c3ccc(Cl)s3)nc2n1 | 2.26 | 14.8 |  |  |  |  |  | 
Cc1cc(C)n2c(NC3CCCCC3)c(-c3ccccc3)nc2n1 | 2.55 | 59 |  |  |  |  |  | 
CCN(c1c(-c2ccc(F)c(F)c2)nc2ncccn12)C1CCCCC1 | 12.8 | > 100 |  | 103 | 0 |  | 1 | 110
COCOc1cc(F)c(-c2nc3ncc(Cl)cn3c2NC2CCCCC2)c(OC)c1 | 6.65 | 48 |  |  |  |  |  | 
Cc1cc(C)n2c(NC3CCCCC3)c(-c3cccc4c3OC(F)(F)O4)nc2n1 | 6.27 | > 25 |  |  |  |  |  | 
Clc1cnc2nc(-c3ccccc3)c(NC3CCCCC3)n2c1 | 13 | > 100 |  |  |  |  |  | 
Fc1cc(N2CCOCC2)ccc1-c1nc2ncc(Cl)cn2c1NC1CCCCC1 | 2.49 | 54 |  |  |  |  |  | 
COCOc1ccc(-c2nc3ncccn3c2NC2CCCCC2)cc1 | 0.09 | > 100 | Stable | 109 | 2.2 | Stable | 63.7 | 105
Oc1ccc(-c2nc3ncc(Cl)cn3c2NC2CCCCCC2)cc1 | 1.09 | 50 |  |  |  |  |  | 
COCOc1ccc(-c2nc3ncc(Br)cn3c2NC2CCCCCC2)cc1 | 1.31 | > 100 |  |  |  |  |  | 
COCOc1ccc(-c2nc3ncc(Cl)cn3c2NC2CCCCCC2)cc1 | 0.74 | > 100 | Stable | 111 | 2.7 | Stable | 13.8 | 111
Cc1cc(C)n2c(NC3CCCCC3)c(-c3nccs3)nc2n1 | 0.49 | > 25 | Stable | 99.9 | 29.4 | Stable | 19.8 | 101
Fc1cccc(-c2nc3ncccn3c2NC2CCCCC2)c1 | 0.39 | > 25 |  |  |  |  |  | 
c1ccc(-c2nc3ncccn3c2NC2CCCC2)cc1 | 0.35 | > 100 |  |  |  |  |  | 
Fc1ccc(-c2nc3ncc(Cl)cn3c2NC2CCCCC2)cc1F | 0.26 | > 100 | Stable |  |  | Stable |  | 
COc1ccc(COc2ccc(-c3nc4ncccn4c3NC3CCCCC3)c(F)c2)cc1 | 2.1 | 39 |  |  |  |  |  | 
COCOc1cccc(-c2nc3ncc(Cl)cn3c2NC2CCCCC2)c1F | 3.04 | 51 |  |  |  |  |  | 
COCOc1ccc(-c2nc3ncc(Cl)cn3c2NC2CCCCC2)c(F)c1 | 3.04 | 50 |  | 102 | 14.2 |  | 2.6 | 106

— ChEMBL document CHEMBL6134909 (Eur J Med Chem, 2025)
